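96-well plates; 48 h exposure; 5 concentrations. Endpoints by linear interpolation between flanking doses. Not reached: highest tested concentration assigned. Abbreviation: GI50, concentration required for 50% inhibition of growth.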 Activity calls are given as the source filed them. Rule as the data show it: active = GI50 up to about 1.1 µM and inactive = higher.
What was measured:
Assay in all cases: inhibition of tumour cell growth, NCI panel, 48 h
A549 = test system: A549
ACHN = test system: ACHN
CCRF-CEM = test system: CCRF-CEM
COLO 205 = test system: COLO 205
HCT-116 = test system: HCT-116
HT-29 = test system: HT-29
IGROV-1 = test system: IGROV-1
K562 = test system: K562
MDA-MB-231 = test system: MDA-MB-231
MDA-N = test system: MDA-N
OVCAR-4 = test system: OVCAR-4
OVCAR-8 = test system: OVCAR-8
PC-3 = test system: PC-3
SK-MEL-28 = test system: SK-MEL-28
SNB-19 = test system: SNB-19
SNB-75 = test system: SNB-75
SR = test system: SR
TK-10 = test system: TK-10

Structure (SMILES)	GI50 (A549)	GI50 (ACHN)	GI50 (CCRF-CEM)	GI50 (COLO 205)	GI50 (HCT-116)	GI50 (HT-29)	GI50 (IGROV-1)	GI50 (K562)	GI50 (MDA-MB-231)	GI50 (MDA-N)	GI50 (OVCAR-4)	GI50 (OVCAR-8)	GI50 (PC-3)	GI50 (SK-MEL-28)	GI50 (SNB-19)	GI50 (SNB-75)	GI50 (SR)	GI50 (TK-10)
COC(=O)[C@H](Cc1ccc(OC(C)(C)C)cc1)N[C@H](C)C(=O)N[C@@H](Cc1ccccc1)C(=O)OCc1ccccc1	46.6 µM (inactive)	93.1 µM (inactive)	40.2 µM (inactive)	96.6 µM (inactive)	35.6 µM (inactive)	47.2 µM (inactive)	> 100 µM (inactive)	25.6 µM (inactive)	> 100 µM (inactive)	> 100 µM (inactive)	> 100 µM (inactive)	52.2 µM (inactive)	61.7 µM (inactive)	> 100 µM (inactive)	> 100 µM (inactive)	57.1 µM (inactive)	26.2 µM (inactive)	> 100 µM (inactive)
CCN(CCCl)c1cc(CN(C)C)cc(NC(=O)c2ccc(C(=O)Nc3ccccc3)cc2)c1	0.42 µM (active)	0.218 µM (active)	0.27 µM (active)	1.04 µM (active)	0.424 µM (active)	0.174 µM (active)	0.177 µM (active)	0.406 µM (active)	1.3 µM (inactive)	0.298 µM (active)	0.288 µM (active)	0.417 µM (active)	0.34 µM (active)	1.19 µM (inactive)	0.676 µM (active)	1.08 µM (active)	0.263 µM (active)	3.02 µM (inactive)
COC(=O)/C(C)=N/N=C(\S)SC		34.1 µM (inactive)	0.0428 µM (active)		31.6 µM (inactive)	17.3 µM (inactive)	47.5 µM (inactive)	75 µM (inactive)	46.6 µM (inactive)	77.1 µM (inactive)	46.3 µM (inactive)	36.4 µM (inactive)	36.5 µM (inactive)	44.5 µM (inactive)			49.7 µM (inactive)	95.5 µM (inactive)
NNc1ncc2c(n1)-c1ccccc1OC2	96.2 µM (inactive)	42.2 µM (inactive)	17.3 µM (inactive)	59.3 µM (inactive)	36.5 µM (inactive)	43.9 µM (inactive)	31 µM (inactive)	50.9 µM (inactive)	> 100 µM (inactive)	> 100 µM (inactive)	67.1 µM (inactive)	44.4 µM (inactive)	47.2 µM (inactive)	> 100 µM (inactive)	> 100 µM (inactive)	35.6 µM (inactive)	27.8 µM (inactive)	> 100 µM (inactive)
O=C1CCC2(CC1CC[S+]([O-])c1ccccc1)OCCO2 (stereo not drawn)	> 100 µM (inactive)	> 100 µM (inactive)	> 100 µM (inactive)	> 100 µM (inactive)		> 100 µM (inactive)	> 100 µM (inactive)	> 100 µM (inactive)	> 100 µM (inactive)	> 100 µM (inactive)	> 100 µM (inactive)	> 100 µM (inactive)	> 100 µM (inactive)	> 100 µM (inactive)	> 100 µM (inactive)	> 100 µM (inactive)	> 100 µM (inactive)	> 100 µM (inactive)
CC(C)(C)C(=O)CC(=O)C(F)(F)C(F)(F)C(F)(F)F	22.3 µM (inactive)	15.3 µM (inactive)	16.3 µM (inactive)	19 µM (inactive)	18.3 µM (inactive)	17.1 µM (inactive)	11.9 µM (inactive)	15.8 µM (inactive)	15.5 µM (inactive)	15.4 µM (inactive)	13.2 µM (inactive)	20.7 µM (inactive)	13.6 µM (inactive)	14.1 µM (inactive)	20 µM (inactive)	16.6 µM (inactive)	5.06 µM (inactive)	18.2 µM (inactive)

From ChEMBL document CHEMBL1201862, “PubChem BioAssay data set” (2004)
